Where a SMILES comes first, the peptide text is derived from it.
Legend:
hepatocytes = type: cell-based, murine; details: 50μg/mL, 24 hours, flow cytometry
TGF-β in hepatocytes = assay: TGF-β mRNA and protein in cultured hepatocytes; type: cell-based, murine; details: hepatocytes on vitronectin, 24 hours
pFAK in hepatocytes = pFAK in hepatocytes by western blotting; type: cell-based, murine; details: suspension without FCS 2 hours, 50μg/mL for 30 minutes
[1] = GLQGE detection in plasma after injection; type: in vivo, mice; details: for time to enter the circulation / time until cleared from the bloodstream: LC-MS/MS; for Tmax: mouse
[2] = Evaluation of toxicity in vivo; set-up: species or system mice; details: 10 days intraperitoneal, 1 mg/mouse/day, N=10/group
Huh-7 hepatoma cell line = assay: TGF-β protein in Huh-7 cells; type: cell-based; details: cultured on vitronectin, 50μg/mL, 24 hours

| Compound | hepatocyte apoptosis (annexinv-propidium-iodide staining) (hepatocytes) | hepatocyte proliferation (ki67 staining) (hepatocytes) | total TGF-β protein in hepatocytes (TGF-β in hepatocytes; 50μg/mL, MLEC bioassay) | TGF-β mRNA expression in cultured hepatocytes compared to untreated control (TGF-β in hepatocytes; 50μg/mL, qPCR) | pFAK in hepatocytes from β3 global knockout mice (pFAK in hepatocytes) | pFAK in hepatocytes (pFAK in hepatocytes; western blotting) | time to enter the circulation ([1]; i.p. injection of 0.5 mg GLQGE) [min] | time until cleared from the bloodstream ([1]; i.p. injection of 0.5 mg GLQGE) [min] | Tmax ([1]; ip, 0.5 mg/mouse) [min] | Tmax ([1]; sc, 1 mg/mouse) [min] | time to enter the circulation ([1]; s.c. injection of 1 mg GLQGE) [min] | time until cleared from the bloodstream ([1]; s.c. injection of 1 mg GLQGE) [min] | blood values of kidney function [2] | blood values of liver function [2] | blood values of pancreas function [2] | complete blood count [2] | TGF-β mRNA expression in wildtype hepatocytes after FAK inhibition (TGF-β in hepatocytes; 5μM) | TGF-β mRNA in cultured hepatocytes compared to GLOGE (TGF-β in hepatocytes; 50μg/mL, qPCR) | TGF-β protein in Huh-7 (Huh-7 hepatoma cell line) |
| --- | --- | --- | --- | --- | --- | --- | --- | --- | --- | --- | --- | --- | --- | --- | --- | --- | --- | --- | --- |
| CC(C)C[C@@H]1NC(=O)CNC(=O)[C@H](CCC(=O)O)NC(=O)CNC(=O)[C@H](CCC(N)=O)NC1=O [GLQGE] (cyclo(EGLQG)) | did not affect | did not affect | suppressed | diminished | increase | increased | ≤ 5 | ≤ 120 | 15 | 15 | ≤ 5 | ≤ 120 | no significant abnormalities | no significant abnormalities | no significant abnormalities | no significant abnormalities |  |  |  |
| CS(=O)(=O)c1cccc(CNc2nc(Nc3ccc4c(c3)CCC(=O)N4)ncc2C(F)(F)F)c1 [PF573228, reference compound] |  |  |  |  |  |  |  |  |  |  |  |  |  |  |  |  | rise |  |  |
| GLNGE (head to tail) |  |  |  |  |  |  |  |  |  |  |  |  | no significant abnormalities | no significant abnormalities | no significant abnormalities | no significant abnormalities |  | diminished | reduced |
| GLOGE (head to tail) |  |  |  |  |  |  |  |  |  |  |  |  | no significant abnormalities | no significant abnormalities | no significant abnormalities | no significant abnormalities |  |  |  |
